Assay results from publication PMC12036875, “Mitochondria-targeting natural product rhein conjugated with dichloroacetate as the dual inhibitor of glycolysis and oxidative phosphorylation to off energize cancer cells and induce ROS storm” (Theranostics, 2025).

Test system: mitochondria of 4T1 cells
Test: Cell uptake and organelle localization (CLSM)
Type: cell-based, Mouse
Conditions: 24 h
Excerpt: In order to evaluate the positive effect of the conjugation of rhein and DCA on anti-cancer aspect, cellular uptake of Rhein-DCA conjugate in 4T1 cells was first examined by confocal laser scanning microscope (CLSM). Based on the fluorescence properties of Rhein-DCA conjugate, green fluorescence signal indicated its distribution within the cells. […] The green fluorescence of rhein was highly overlapped with the red fluorescence of mitochondria (Mito tracker red) and merged into yellow fluorescence in rhein and Rhein-DCA groups.
4T1 cells were seeded in confocal dishes at a density of 10 × 10^4 cells per dish and cultured in the incubator for 24 h. And the cells were further treated with Rhein-DCA conjugate at a concentration of 6.25 μM for 0, 2, 6, 12 or 24 h, respectively. Thereafter, the cells were washed twice with PBS and stained with Hoechst 33342 (10 μg/mL) for 15 min in the dark at room temperature, followed by another two washes with PBS. Finally, the fluorescence intensity of cells was monitored with confocal microscope with excitation wavelengths (Ex) of 488 nm, emission wavelengths (Em) of 525 ± 25 nm, and Ex of 405 nm, Em of 447 ± 30 nm, respectively. […]

SMILES: O=C(OCCOC(=O)C(Cl)Cl)c1cc(O)c2c(c1)C(=O)c1cccc(O)c1C2=O [Rhein-DCA]
- co-localization with lysosomes (Lyso tracker red) and endoplasmic reticulum (ER tracker red): almost did not co-localize
